Key:
Rhesus PDE2A3 = Rhesus PDE2A3 (Macaca mulatta, UniProt B3VTJ2); assay: PDE2 fluorescence polarization (IMAP FP) inhibition assay, rhesus enzyme; format: biochemical, rhesus macaque; conditions: Rhesus PDE2, Lab A; read-out: Rhesus PDE2 Ki (nM) - Lab A
In short: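 IMAP FP (mP from parallel and perpendicular fluorescence against substrate-only control) was read ≥1 h after adding binding reagent. The preceding 60 min room-temperature reaction contained FAM-cAMP (50 nM) and cGMP (1 uM) in pH 7.2 Tris buffer with MgCl2 and DTT. Enzyme was supernatant of sonicated AD293 cells expressing rhesus PDE2A3; compounds were 3-fold titrated, DMSO 1% final.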

human PDE2A1 = human PDE2A1 (Homo sapiens (Human), UniProt O00408); assay: IMAP FP PDE selectivity panel, human PDE2A1; format: biochemical; conditions: Human PDE2, Lab A; read-out: Human PDE2 Ki (nM) - Lab A
In short: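 IMAP FP format: substrate 50 nM FAM-cAMP plus 1000 nM cGMP, enzyme (insect-cell GST-tagged human PDE2A1) at ~20% conversion, 60 min reaction at room temperature. Apparent inhibition constants calculated from parallel/perpendicular fluorescence with KM 10,000 nM.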

Sequence of human PDE2A1 (O00408 other isoform, or with tags, fused parts or gaps): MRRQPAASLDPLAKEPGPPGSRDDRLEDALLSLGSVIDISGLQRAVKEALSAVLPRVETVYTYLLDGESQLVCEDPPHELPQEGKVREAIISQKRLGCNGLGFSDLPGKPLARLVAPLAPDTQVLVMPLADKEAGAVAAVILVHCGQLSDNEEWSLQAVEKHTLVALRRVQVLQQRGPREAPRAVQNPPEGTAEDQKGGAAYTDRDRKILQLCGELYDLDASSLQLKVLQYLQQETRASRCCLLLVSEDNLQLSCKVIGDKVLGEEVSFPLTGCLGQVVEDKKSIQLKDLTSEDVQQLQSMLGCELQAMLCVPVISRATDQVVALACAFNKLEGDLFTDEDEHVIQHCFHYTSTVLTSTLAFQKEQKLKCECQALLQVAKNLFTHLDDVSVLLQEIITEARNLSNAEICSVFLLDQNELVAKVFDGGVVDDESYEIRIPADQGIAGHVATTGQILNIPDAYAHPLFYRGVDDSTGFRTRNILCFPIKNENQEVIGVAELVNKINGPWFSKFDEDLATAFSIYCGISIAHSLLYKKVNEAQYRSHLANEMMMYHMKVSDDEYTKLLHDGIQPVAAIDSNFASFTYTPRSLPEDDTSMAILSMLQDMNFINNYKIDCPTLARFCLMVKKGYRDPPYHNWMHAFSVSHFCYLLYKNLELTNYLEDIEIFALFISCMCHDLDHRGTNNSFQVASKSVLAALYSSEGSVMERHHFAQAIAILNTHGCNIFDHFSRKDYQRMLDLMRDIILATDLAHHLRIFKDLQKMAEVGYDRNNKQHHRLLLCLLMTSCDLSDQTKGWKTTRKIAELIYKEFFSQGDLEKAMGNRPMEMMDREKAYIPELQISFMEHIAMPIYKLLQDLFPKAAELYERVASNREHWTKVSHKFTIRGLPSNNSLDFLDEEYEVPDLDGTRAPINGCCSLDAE
Sequence of Rhesus PDE2A3 (B3VTJ2 1-941): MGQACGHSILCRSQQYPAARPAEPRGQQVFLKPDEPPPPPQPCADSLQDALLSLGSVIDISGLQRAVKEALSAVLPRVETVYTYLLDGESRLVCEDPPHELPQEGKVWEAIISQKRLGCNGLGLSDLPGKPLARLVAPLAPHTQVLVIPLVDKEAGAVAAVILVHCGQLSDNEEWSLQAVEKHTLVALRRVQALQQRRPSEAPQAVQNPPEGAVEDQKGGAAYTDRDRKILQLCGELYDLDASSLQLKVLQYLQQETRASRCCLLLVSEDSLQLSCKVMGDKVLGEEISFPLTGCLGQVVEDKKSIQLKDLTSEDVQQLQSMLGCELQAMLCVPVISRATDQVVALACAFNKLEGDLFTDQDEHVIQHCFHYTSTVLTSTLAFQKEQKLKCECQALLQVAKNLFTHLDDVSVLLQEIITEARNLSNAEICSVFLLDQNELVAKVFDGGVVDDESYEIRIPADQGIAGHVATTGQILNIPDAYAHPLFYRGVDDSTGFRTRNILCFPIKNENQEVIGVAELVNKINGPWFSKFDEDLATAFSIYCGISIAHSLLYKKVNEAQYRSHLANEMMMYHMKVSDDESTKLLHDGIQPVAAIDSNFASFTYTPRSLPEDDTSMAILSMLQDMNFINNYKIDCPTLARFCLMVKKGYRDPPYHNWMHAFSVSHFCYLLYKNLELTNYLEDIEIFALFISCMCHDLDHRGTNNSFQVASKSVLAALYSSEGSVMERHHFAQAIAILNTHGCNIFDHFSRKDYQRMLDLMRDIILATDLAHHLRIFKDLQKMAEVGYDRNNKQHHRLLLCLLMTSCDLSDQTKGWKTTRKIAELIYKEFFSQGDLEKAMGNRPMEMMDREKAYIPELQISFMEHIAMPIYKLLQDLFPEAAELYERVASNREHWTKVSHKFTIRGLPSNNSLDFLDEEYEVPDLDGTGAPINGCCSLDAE

| Compound | Ki (Rhesus PDE2A3) | Ki (human PDE2A1) |
| --- | --- | --- |
| O=C(NC1(c2ccc(OC(F)(F)F)cc2)CC1)c1cc(=O)[nH]c(-c2ncccn2)n1 [Example 285, 6-oxo-N-{1-[4-(trifluoromethoxy)phenyl]cyclopropyl}-1,6-dihydro-2,2′-bipyrimidine-4-carboxamide] | 46 nM | 46 nM |
| C[C@@H](NC(=O)c1cc(=O)[nH]c(-c2ncccn2)n1)c1ccc(-c2ccccc2)cc1 [Example 287, N-[(1R)-1-biphenyl-4-ylethyl]-6-oxo-1,6-dihydro-2,2′-bipyrimidine-4-carboxamide] | 45 nM | 28 nM |
| O=C(NC1(c2ccc(OC(F)(F)F)cc2)CCC1)c1cc(=O)[nH]c(-c2ncccn2)n1 [Example 290, 6-oxo-N-(1-(4-(trifluoromethoxy)phenyl)cyclobutyl)-1,6-dihydro-[2,2′-bipyrimidine]-4-carboxamide] | 942 nM | 540 nM |
| C[C@@H](NC(=O)c1cc(=O)[nH]c(-c2ncccn2)n1)c1ccc(C(F)(F)F)cc1 [Example 291, 6-oxo-N-{(1R)-1-[4-(trifluoromethyl)phenyl]ethyl}-1,6-dihydro-2,2′-bipyrimidine-4-carboxamide] | 11 nM | 10 nM |
| O=C(NC1(c2ccc(C(F)(F)F)cc2)CC1)c1cc(=O)[nH]c(C2CC2)n1 [Example 292, 2-cyclopropyl-6-oxo-N-{1-[4-(trifluoromethyl)phenyl]cyclopropyl}-1,6-dihydropyrimidine-4-carboxamide] | 14 nM | 12 nM |
| O=C(NC(CO)c1ccc(C(F)(F)F)cc1)c1cc(=O)[nH]c(C2CC2)n1 (stereo not drawn) [Example 294, 2-cyclopropyl-N-{2-hydroxy-1-[4-(trifluoromethyl)phenyl]ethyl}-6-oxo-1,6-dihydropyrimidine-4-carboxamide] | 69 nM | 46 nM |
| CC(C)(NC(=O)c1cc(=O)[nH]c(C2CC2)n1)c1ccc(OC(F)(F)F)cc1 [Example 295, 2-cyclopropyl-N-{1-methyl-1-[4-(trifluoromethoxy)phenyl]ethyl}-6-oxo-1,6-dihydropyrimidine-4-carboxamide] | 127 nM | 77 nM |
| C[C@@H](NC(=O)c1cc(=O)[nH]c(C2CC2)n1)c1ccc(OC(F)(F)F)c(F)c1 [Example 296, 2-cyclopropyl-N-{(1R)-1-[3-fluoro-4-(trifluoromethoxy)phenyl]ethyl}-6-oxo-1,6-dihydropyrimidine-4-carboxamide] | 6.3 nM | 3.1 nM |
| C[C@@H](NC(=O)c1cc(=O)[nH]c(C2CC2)n1)c1ccc(OC(F)(F)F)cc1F [Example 297, 2-cyclopropyl-N-{(1R)-1-[2-nuoro-4-(trifluoromethoxy)phenyl]ethyl}-6-oxo-1,6-dihydropyrimidine-4-carboxamide] | 30 nM | 16 nM |
| O=C(NC1(c2ccc(OC(F)(F)F)cc2)CCC1)c1cc(=O)[nH]c(C2CC2)n1 [Example 300, 2-cyclopropyl-6-oxo-N-{1-[4-(trifluoromethoxy)phenyl]cyclobutyl}-1,6-dihydropyrimidine-4-carboxamide] | 88 nM | 55 nM |
| Cc1nc(C(=O)N[C@H](C)c2cccc3ccccc23)cc(=O)[nH]1 [Example 301, (R)-2-methyl-N-(1-(naphthalen-1-yl)ethyl)-6-oxo-1,6-dihydropyrimidine-4-carboxamide] | 53 nM | 66 nM |
| Cc1nc(C(=O)NC(C)c2ccc3cc[nH]c3c2)cc(=O)[nH]1 (stereo not drawn) [Example 303, N-(1-(1H-indol-6-yl)ethyl)-2-methyl-6-oxo-1,6-dihydropyrimidine-4-carboxamide] | 208 nM | 215 nM |
| Cc1nc(C(=O)N[C@H](C)c2ccc(OC(F)F)cc2)cc(=O)[nH]1 [Example 304, (R)-N-(1-(4-(difluoromethoxy)phenyl)ethyl)-2-methyl-6-oxo-1,6-dihydropyrimidine-4-carboxamide] | 91 nM | 76 nM |
| Cc1nc(C(=O)N[C@@H](c2ccc(C(F)(F)F)cc2)C(C)C)cc(=O)[nH]1 [Example 316, 2-methyl-N-{(1R)-2-methyl-1-[4-(trifluoromethyl)phenyl]propyl}-6-oxo-1,6-dihydropyrimidine-4-carboxamide] | 13 nM | 7.1 nM |
| Cc1nc(C(=O)N[C@H](C)c2ccc(-c3cccc(F)c3)cc2)cc(=O)[nH]1 [Example 323, N-[(1R)-1-(3′-fluorobiphenyl-4-yl)ethyl]-2-methyl-6-oxo-1,6-dihydropyrimidine-4-carboxamide] | 66 nM | 50 nM |
| Cc1nc(C(=O)N[C@H](C)c2ccc(-c3ccccc3F)cc2)cc(=O)[nH]1 [Example 324, N-[(1R)-1-(2′-fluorobiphenyl-4-yl)ethyl]-2-methyl-6-oxo-1,6-dihydropyrimidine-4-carboxamide] | 131 nM | 138 nM |

Continued, values first:

| Ki (Rhesus PDE2A3) | Ki (human PDE2A1) | Compound |
| --- | --- | --- |
| 43 nM | 36 nM | O=C(NC1(c2ccc(C(F)(F)F)cc2)CC1)c1cc(=O)[nH]c(-c2ncccn2)n1 [Example 284, 6-oxo-N-{1-[4-(trifluoromethyl)phenyl]cyclopropyl}-1,6-dihydro-2,2′-bipyrimidine-4-carboxamide] |
| 83 nM | 60 nM | O=C(NC1(c2ccc(C(F)(F)F)cc2)CCC1)c1cc(=O)[nH]c(-c2ncccn2)n1 [Example 286, 6-oxo-N-{1-[4-(trifluoromethyl)phenyl]cyclobutyl}-1,6-dihydro-2,2′-bipyrimidine-4-carboxamide] |
| 152 nM | 123 nM | CC(C)(NC(=O)c1cc(=O)[nH]c(-c2ncccn2)n1)c1ccc(C(F)(F)F)cc1 [Example 288, N-{1-methyl-1-[4-(trifluoromethyl)phenyl]ethyl}-6-oxo-1,6-dihydro-2,2′-bipyrimidine-4-carboxamide] |
| 22 nM | 20 nM | CC(C)(NC(=O)c1cc(=O)[nH]c(C2CC2)n1)c1ccc(C(F)(F)F)cc1 [Example 293, 2-cyclopropyl-N-{1-methyl-1-[4-(trifluoromethyl)phenyl]ethyl}-6-oxo-1,6-dihydropyrimidine-4-carboxamide] |
| 18 nM | 13 nM | CC(C)c1ccc([C@@H](C)NC(=O)c2cc(=O)[nH]c(C3CC3)n2)cc1 [Example 298, 2-cyclopropyl-N-{(1R)-1-[4-(1-methylethyl)phenyl]ethyl}-6-oxo-1,6-dihydropyrimidine-4-carboxamide] |
| 14 nM | 9.1 nM | O=C(NC1(c2ccc(OC(F)(F)F)cc2)CC1)c1cc(=O)[nH]c(C2CC2)n1 [Example 299, 2-cyclopropyl-6-oxo-N-{1-[4-(trifluoromethoxy)phenyl]cyclopropyl}-1,6-dihydropyrimidine-4-carboxamide] |
| 205 nM | 171 nM | Cc1nc(C(=O)N[C@H](C)c2ccc(-c3ccc(F)cc3)cc2)cc(=O)[nH]1 [Example 322, N-[(1R)-1-(4′-fluorobiphenyl-4-yl)ethyl]-2-methyl-6-oxo-1,6-dihydropyrimidine-4-carboxamide] |
| 1420 nM | 565 nM | Cc1nc(C(=O)NC(C(=O)N(C)C)c2ccc(C(F)(F)F)cc2)cc(=O)[nH]1 (stereo not drawn) [Example 329, N-{2-(dimethylamino)-2-oxo-1-[4-(trifluoromethyl)phenyl]ethyl}-2-methyl-6-oxo-1,6-dihydropyrimidine-4-carboxamide] |

Source: patent US9815796B2 (Merck Sharp & Dohme Corp., priority 2013, dated 2017)
